This is an account of results in US20250188420A1, “MATURING AGENT HAVING BOTH OF ALK5 INHIBITORY ACTIVITY AND CDK8/19 INHIBITORY ACTIVITY” (ORIZURU THERAPEUTICS, INC., priority 2022, published 2025).

The subject of data set [1] is Salmonella typhimurium TA100, TA1535, TA98, and TA1537 strains and an Escherichia coli WP2uvrA strain. As to the kind of experiment: Ames test (mutagenicity evaluation). The following applies: no S9 fraction; FIG. 1. On the procedure:
(§1) The Ames test was conducted according to a conventionally known approach. That is, each bacterial strain of Salmonella typhimurium TA100, TA1535, TA98, and TA1537 strains and an Escherichia coli WP2uvrA strain was mixed with each compound with seven concentrations (78.1 to 5,000 μg/plate), preincubated in vitro for 20 minutes, and then inoculated, together with added semifluid agar, to a minimal glucose agar medium, followed by solidification and incubation at 37° C. for 48 hours. This experiment involved no rat liver S9 fraction because the experiment was aimed at evaluating the mutagenicity of each compound in a cell culture system, not evaluating metabolites obtained after metabolisms by hepatic enzymes. […] Positivity was determined when an average number of revertant colonies in any of the bacterial strains was at least twice or more the average number of the negative control.
Background: In the Ames test, an excess of revertant colonies over the control signals mutagenicity.

For data set [2], the system named is pancreatic progenitor cell population obtained from human iPS cells (Ff-I14-s04 line). The data set can be described thus: induction of differentiation of pancreatic progenitor cell population into insulin-positive cell population, flow cytometry. The class given is cell-based. How it is done:
In this testing method, the induction of differentiation of human iPS cells (Ff-I14-s04 line) into a pancreatic progenitor cell population was carried out according to the above steps 1)-4), the previous report (Stem Cell Research (2015) 14, 185-197), etc. The induction of differentiation into insulin-positive cells was carried out according to the above step 5), 6), etc.
The number of insulin-positive and NKX6.1-positive cells and the number of CHGA-positive and PDX1-positive cells in the insulin-positive cell population obtained by the above method was counted by flow cytometry to determine the respective proportions of the cells in each cell population.
The number of insulin-positive and NKX6.1-positive cells in the insulin-positive cell population obtained by the above method was counted by flow cytometry to determine the respective proportions of the cells in each cell population.
(In general: In flow cytometry, cells or beads pass a laser one at a time.)

For the next data set, the system named is CDK8 and CDK19 (CDK8/19). As to the kind of experiment: binding evaluation test of kinase inhibitors against 11 kinases (FIG. 3). The conditions noted are these: compared among ALK5iII and nonmutagenic ALK5 inhibitors. How it is done:
Next, the nonmutagenic ALK5 inhibitors (SB431542, SB525334, IN1130, and EW-7197) were also evaluated for their inhibitory activity against these 11 kinases.

The test system of data set [3] is pancreatic progenitor cell population obtained from human iPS cells (Ff-I14-s04 line). The data set can be described thus: induction of differentiation of pancreatic progenitor cell population into insulin-positive cell population, flow cytometry. It is filed as cell-based. The following applies: Example 3; 3 μM SB431542, 0.3 μM Senexin B or both; versus 10 μM ALK5iII, FIG. 4B.

Data set [4] relates to insulin-positive cell population obtained from human iPS cells. As to the kind of experiment: single-cell RNA-seq analysis of insulin-positive cell populations. The class given is cell-based. The conditions noted are these: for typical endocrine cells (clusters #0, #1, #2, #3, and #6) in the insulin-positive cell population: 10 μM ALK5iII, 3 μM SB431542, 0.3 μM Senexin B or combination; for percentage of each cluster (#1, #3, #6, and #12) in insulin-positive and NKX6.1-positive cell subpopulation: versus population produced using ALK5iII, FIG. 5. On the procedure: Subsequently, in order to compare cell composition among the respective insulin-positive cell populations produced using the inhibitors (1) to (4), single-cell RNA-seq (scRNA-seq) analysis was conducted. A library for scRNA-seq analysis was prepared using Chromium Controller and a preparation kit (Chromium Next GEM Single Cell 3′ Kits v3.1) from 10× Genomics, Inc. and sequenced using Hi-seq platform from Illumina, Inc. Data on the obtained UMI counts was analyzed using Cell Ranger and R Package Seurat from 10× Genomics, Inc. and subjected to dimensionality reduction and visualization using PCA and UMAP. Cell clustering based on the results of dimensionality reduction was carried out by clustering based on the shared nearest neighbor method of Seurat.
As a result, cell clusters #1 to #17 were identified in the respective insulin-positive cell populations produced using the inhibitors (1) to (4). […] The cells of clusters #3 and #6 had features specific for enterochromaffin cells. […] These cells can thereby be discriminated from the cells of cluster #1 adjacent thereto and are therefore considered to be relatively immature β cells. Some of the β cells might be integrated, together with α cells, δ cells, and γ cells, into cluster #0.

The test system of data set [5] is Salmonella typhimurium TA1537. On the procedure: as §1
Another data set addresses T1, ALK5 (Homo sapiens, UniProt P36897).
T1 sequence (P36897 34-503): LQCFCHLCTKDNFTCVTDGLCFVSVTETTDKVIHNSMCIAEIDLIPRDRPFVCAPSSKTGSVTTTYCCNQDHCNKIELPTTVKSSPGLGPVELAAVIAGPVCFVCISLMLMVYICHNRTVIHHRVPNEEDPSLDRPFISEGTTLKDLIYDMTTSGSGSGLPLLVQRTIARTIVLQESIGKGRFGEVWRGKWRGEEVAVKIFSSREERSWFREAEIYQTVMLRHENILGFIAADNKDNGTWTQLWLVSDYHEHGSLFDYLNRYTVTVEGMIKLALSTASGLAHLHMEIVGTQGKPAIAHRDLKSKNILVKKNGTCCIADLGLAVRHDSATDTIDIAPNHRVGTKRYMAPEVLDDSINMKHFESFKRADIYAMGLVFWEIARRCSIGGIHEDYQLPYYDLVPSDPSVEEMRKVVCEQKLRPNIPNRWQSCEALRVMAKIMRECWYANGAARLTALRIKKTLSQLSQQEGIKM
The data set can be described thus: ALK5-inhibiting activity (FIG. 1). It is filed as biochemical.

The target in the next data set is CDK8 (Homo sapiens, UniProt P49336). The conditions noted are these: estimated from inhibition at 0.1 μM and 1 μM.
Sequence of CDK8 (P49336 whole entry, species assumed): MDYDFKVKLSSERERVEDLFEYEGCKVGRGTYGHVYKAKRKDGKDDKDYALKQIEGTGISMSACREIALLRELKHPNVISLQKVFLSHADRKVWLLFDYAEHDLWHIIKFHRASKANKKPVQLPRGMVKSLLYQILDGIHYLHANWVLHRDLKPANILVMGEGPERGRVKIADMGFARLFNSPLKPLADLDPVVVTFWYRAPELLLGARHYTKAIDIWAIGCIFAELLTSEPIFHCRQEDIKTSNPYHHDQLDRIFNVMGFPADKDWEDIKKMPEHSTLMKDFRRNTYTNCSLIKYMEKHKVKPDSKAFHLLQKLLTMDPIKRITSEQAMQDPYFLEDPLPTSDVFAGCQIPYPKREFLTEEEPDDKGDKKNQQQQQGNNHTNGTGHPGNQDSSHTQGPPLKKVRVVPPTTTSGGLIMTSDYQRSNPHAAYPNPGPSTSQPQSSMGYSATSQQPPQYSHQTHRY
Sequence of CDK8 (P24863 whole entry partner, species assumed): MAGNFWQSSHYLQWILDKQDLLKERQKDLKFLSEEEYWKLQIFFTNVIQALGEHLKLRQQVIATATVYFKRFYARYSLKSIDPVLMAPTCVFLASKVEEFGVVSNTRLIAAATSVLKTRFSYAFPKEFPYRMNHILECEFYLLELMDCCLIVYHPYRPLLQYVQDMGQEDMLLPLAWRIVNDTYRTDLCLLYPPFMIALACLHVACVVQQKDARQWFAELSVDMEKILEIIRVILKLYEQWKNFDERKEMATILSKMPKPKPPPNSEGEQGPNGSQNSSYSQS
A further data set has as its target TNIK (Homo sapiens, UniProt Q9UKE5). The conditions noted are these: estimated from inhibition at 0.1 μM and 1 μM.
A further data set has as its target RIPK2 (Homo sapiens, UniProt O43353). The conditions noted are these: estimated from inhibition at 0.1 μM and 1 μM.
Data set [6] concerns 11 kinases including CDK8 and CDK19. The conditions noted are these: 11 of approximately 350 recombinant kinases.
The next data set concerns the target TGFBR2 (Homo sapiens, UniProt P37173). The conditions noted are these: estimated from inhibition at 0.1 μM and 1 μM.
The target of another data set is CDK19 (Homo sapiens, UniProt Q9BWU1). The conditions noted are these: estimated from inhibition at 0.1 μM and 1 μM.
Sequence of CDK19 (Q9BWU1 whole entry, species assumed): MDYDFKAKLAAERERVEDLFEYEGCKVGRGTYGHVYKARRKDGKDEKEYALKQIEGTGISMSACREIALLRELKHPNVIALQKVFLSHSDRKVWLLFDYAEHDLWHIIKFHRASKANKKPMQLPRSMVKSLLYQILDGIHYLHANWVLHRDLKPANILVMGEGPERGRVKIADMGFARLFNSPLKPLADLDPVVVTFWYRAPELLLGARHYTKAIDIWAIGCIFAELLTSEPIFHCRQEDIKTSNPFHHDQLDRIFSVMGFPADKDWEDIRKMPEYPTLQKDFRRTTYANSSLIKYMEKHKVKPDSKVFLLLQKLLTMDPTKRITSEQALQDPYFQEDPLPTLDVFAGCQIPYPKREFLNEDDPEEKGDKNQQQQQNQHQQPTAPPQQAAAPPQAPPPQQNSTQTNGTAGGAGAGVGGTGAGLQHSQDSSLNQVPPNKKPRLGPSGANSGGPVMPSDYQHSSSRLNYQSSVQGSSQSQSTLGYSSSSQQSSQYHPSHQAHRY
Sequence of CDK19 (P24863 whole entry partner, species assumed): as the sequence (P24863 whole entry partner, species assumed) above
Setting [7] is: Example 2, SB525334 10 μM, SB431542 10 μM, IN1130 1 μM, EW-7197 1 μM, versus control medium (−).
The mark [8] stands for this setting: Example 3, 3 μM SB431542, 0.3 μM Senexin B or both, versus 10 μM ALK5iII, FIG. 4A.

Read-outs that look alike come from different tables or passages of the source.

Sequence of TNIK (Q9UKE5 whole entry, species assumed): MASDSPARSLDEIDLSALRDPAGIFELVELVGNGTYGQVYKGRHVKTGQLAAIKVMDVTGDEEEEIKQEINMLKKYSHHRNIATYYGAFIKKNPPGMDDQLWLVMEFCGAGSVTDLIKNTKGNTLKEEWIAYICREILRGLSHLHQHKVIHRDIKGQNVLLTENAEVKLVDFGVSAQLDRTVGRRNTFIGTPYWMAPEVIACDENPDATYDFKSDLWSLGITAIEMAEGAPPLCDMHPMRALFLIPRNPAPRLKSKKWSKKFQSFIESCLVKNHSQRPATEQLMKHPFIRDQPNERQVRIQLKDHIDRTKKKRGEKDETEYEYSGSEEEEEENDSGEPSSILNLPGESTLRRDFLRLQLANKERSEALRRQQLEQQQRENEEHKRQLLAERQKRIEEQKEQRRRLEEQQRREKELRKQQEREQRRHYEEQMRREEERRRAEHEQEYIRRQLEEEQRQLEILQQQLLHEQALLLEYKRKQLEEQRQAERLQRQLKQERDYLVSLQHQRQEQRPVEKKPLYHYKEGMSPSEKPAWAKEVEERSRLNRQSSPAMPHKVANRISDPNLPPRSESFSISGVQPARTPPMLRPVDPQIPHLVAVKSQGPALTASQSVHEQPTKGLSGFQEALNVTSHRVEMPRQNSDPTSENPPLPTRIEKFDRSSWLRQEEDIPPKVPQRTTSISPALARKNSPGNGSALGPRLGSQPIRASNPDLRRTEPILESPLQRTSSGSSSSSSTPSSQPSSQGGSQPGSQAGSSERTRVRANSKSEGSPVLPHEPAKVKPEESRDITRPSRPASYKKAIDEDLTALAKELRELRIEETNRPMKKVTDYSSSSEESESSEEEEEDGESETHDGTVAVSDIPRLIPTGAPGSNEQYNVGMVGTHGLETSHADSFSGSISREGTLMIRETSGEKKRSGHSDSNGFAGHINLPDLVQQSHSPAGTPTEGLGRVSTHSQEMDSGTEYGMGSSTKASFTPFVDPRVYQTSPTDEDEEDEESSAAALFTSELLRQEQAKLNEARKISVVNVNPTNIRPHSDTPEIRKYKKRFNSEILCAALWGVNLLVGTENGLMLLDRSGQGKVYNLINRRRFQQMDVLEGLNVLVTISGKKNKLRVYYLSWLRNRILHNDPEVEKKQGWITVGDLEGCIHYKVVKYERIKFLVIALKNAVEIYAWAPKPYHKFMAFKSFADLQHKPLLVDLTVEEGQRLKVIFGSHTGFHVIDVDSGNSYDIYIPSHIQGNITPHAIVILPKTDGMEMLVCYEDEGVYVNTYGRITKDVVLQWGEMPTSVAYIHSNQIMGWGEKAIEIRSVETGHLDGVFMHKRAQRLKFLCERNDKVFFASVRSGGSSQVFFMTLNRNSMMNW
Sequence of TGFBR2 (P37173 23-567, species assumed): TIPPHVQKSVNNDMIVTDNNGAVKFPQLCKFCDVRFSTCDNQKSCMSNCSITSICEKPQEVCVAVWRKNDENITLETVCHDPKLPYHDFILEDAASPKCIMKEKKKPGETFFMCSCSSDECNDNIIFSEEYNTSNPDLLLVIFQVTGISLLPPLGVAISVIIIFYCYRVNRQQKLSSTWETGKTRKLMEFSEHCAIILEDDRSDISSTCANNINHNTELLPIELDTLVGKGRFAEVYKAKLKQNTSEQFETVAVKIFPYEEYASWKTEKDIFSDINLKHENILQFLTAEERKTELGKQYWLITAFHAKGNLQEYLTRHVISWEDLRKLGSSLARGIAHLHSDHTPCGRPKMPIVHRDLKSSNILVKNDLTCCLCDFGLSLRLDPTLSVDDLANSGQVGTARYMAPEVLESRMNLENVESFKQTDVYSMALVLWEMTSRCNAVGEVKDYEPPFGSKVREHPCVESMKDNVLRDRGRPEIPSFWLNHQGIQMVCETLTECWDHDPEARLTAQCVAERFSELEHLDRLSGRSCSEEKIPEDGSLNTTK
Sequence of RIPK2 (O43353 whole entry, species assumed): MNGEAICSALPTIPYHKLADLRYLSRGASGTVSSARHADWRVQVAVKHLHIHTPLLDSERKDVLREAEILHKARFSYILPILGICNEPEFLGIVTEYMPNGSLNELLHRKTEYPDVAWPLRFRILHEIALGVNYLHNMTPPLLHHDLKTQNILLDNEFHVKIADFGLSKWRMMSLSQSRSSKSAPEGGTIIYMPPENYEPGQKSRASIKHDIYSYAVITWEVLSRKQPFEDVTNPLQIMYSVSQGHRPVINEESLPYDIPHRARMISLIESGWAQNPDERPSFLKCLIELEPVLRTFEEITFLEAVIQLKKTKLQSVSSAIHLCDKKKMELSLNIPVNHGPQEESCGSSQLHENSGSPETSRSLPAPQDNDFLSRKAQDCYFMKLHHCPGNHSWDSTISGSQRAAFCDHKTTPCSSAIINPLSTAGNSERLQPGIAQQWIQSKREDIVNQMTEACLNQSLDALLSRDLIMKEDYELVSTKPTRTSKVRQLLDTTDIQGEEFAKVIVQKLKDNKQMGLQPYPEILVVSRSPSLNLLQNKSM

Take `NC(=O)c1ccc(-c2nc(-c3ccc4c(c3)OCO4)c(-c3ccccn3)[nH]2)cc1` [SB431542, 4-[4-(1,3-Benzodioxol-5-yl)-5-(2-pyridinyl)-1H-imidazol-2-yl]-benzamide]: in data set [1], the “mutagenicity / Ames test determination” value was “no mutagenicity”. For the same molecule, in [2] (setting [7]), the “proportion of CHGA-positive and PDX1-positive cells” value is “equivalent to the control”; the “proportion of insulin-positive and NKX6.1-positive cells” value is recorded as “equivalent to the control”. For the same molecule, the “proportion of insulin-positive and NKX6.1-positive cells” value in data set [2] (setting [8]) is on record as “lower values”. The “inhibitory activity against CDK8 and CDK19 (CDK8/19)” value (from here on “inhibitory activity”) in the data set on CDK8 and CDK19 (CDK8/19) is given as “unique to ALK5iII”. The total cell yield result in [3] is “lower values”. Also, in data set [4] (scRNA-seq), the “clusters #5, #9, #10, #12, and #13” value is reported as “specialized”; the “typical endocrine cells (clusters #0, #1, #2, #3, and #6) in the insulin-positive cell population” value (from here on “typical endocrine cells”) is “not found”. For the same molecule, the “percentage of each cluster (#1, #3, #6, and #12) in insulin-positive and NKX6.1-positive cell subpopulation” value in data set [4] was “different”.

For `Cc1cccc(-c2nc(Cc3cccc(C(N)=O)c3)[nH]c2-c2ccc3nccnc3c2)n1` [IN1130, 3-[[5-(6-Methyl-2-pyridinyl)-4-(6-quinoxalinyl)-1H-imidazol-2-yl]methyl]benzamide], in data set [2] (setting [7]), the “proportion of CHGA-positive and PDX1-positive cells” value is “equivalent to the control”; the “proportion of insulin-positive and NKX6.1-positive cells” value was “equivalent to the control”. The “inhibitory activity” value in the data set with CDK8 and CDK19 (CDK8/19) is given as “unique to ALK5iII”.

`Cl.Nc1c2ccccc2nc2ccccc12.O` [Compound 9-AA, 9-aminoacridine hydrochloride monohydrate]: the “# of colony” value in data set [5] (TA1537, -S9, positive control, 80 μg (ALK5 i II experiment)) is given as 169.

On to `Cc1cccc(-c2nc(C(C)(C)C)[nH]c2-c2ccc3nccnc3c2)n1` [SB525334, 6-[2-tert-Butyl-5-(6-methylpyridin-2-yl)-1H-imidazol-4-yl]quinoxaline], for which the “mutagenicity / Ames test determination” value in [1] is given as “no mutagenicity”. Besides, in data set [2] (setting [7]), the “proportion of CHGA-positive and PDX1-positive cells” value is given as “equivalent to the control”; the “proportion of insulin-positive and NKX6.1-positive cells” value is recorded as “equivalent to the control”. Besides, the “inhibitory activity” value with CDK8 and CDK19 (CDK8/19) was “unique to ALK5iII”.

Turning to `COc1ccc2nc3cc(Cl)ccc3c(NCCCNCCCl)c2c1` [ICR 191], the “# of colony” value in data set [5] (TA1537, -S9, positive control, 1.0 μg (quinoxaline analog experiment)) was found to be 1804.

On to `Cc1cccc(-c2[nH]c(CNc3ccccc3F)nc2-c2ccc3ncnn3c2)n1` [EW-7197], for which, in [2] (setting [7]), the “proportion of CHGA-positive and PDX1-positive cells” value was “equivalent to the control”; the “proportion of insulin-positive and NKX6.1-positive cells” value is “equivalent to the control”. In addition, the “inhibitory activity” value in the data set on CDK8 and CDK19 (CDK8/19) is on record as “unique to ALK5iII”.

On to `CN1CCN(C(=O)c2ccc3cc(CCNc4ncnc5ccc(C#N)cc45)ccc3c2)CC1` [Senexin B, 4-((2-(6-(4-Methylpiperazine-1-carbonyl)naphthalen-2-yl)ethyl)amino)quinazoline-6-carbonitrile], for which the “proportion of insulin-positive and NKX6.1-positive cells” value in data set [2] (setting [8]) is “higher percentage”. For the same molecule, the total cell yield result in data set [3] is recorded as “lower value”. In addition, in [4] (scRNA-seq), the “typical endocrine cells” value is listed as “found with almost no exception”. Also, the “percentage of each cluster (#1, #3, #6, and #12) in insulin-positive and NKX6.1-positive cell subpopulation” value in [4] is recorded as “different”.

Take `c1cncc(-c2n[nH]cc2-c2cnc3ccccc3n2)c1` [2-(3-(pyridin-3-yl)-1H-pyrazol-4-yl)quinoxaline]: in data set [1], the “mutagenicity / Ames test determination” value is given as “positive”. The “# of colony” value in [5] (TA1537, -S9, 78.1 μg/plate) was 5; in data set [5] (TA1537, -S9, 156 μg/plate) it was 9; in [5] (TA1537, -S9, 313 μg/plate), 21; in [5] (TA1537, -S9, 625 μg/plate), 45; in [5] (TA1537, -S9, 1250 μg/plate), 82; in data set [5] (TA1537, -S9, 2500 μg/plate) it was 128. The “# of colony” value in data set [5] (TA1537, -S9, 5000 μg/plate) worked out at 194. The ALK5-inhibiting activity entry on ALK5 is recorded as “no ALK5-inhibiting activity”.

`Cc1cccc(-c2n[nH]cc2-c2ccc3ncccc3n2)n1` [ALK5iII, 2-(3-(6-methylpyridin-2-yl)-1H-pyrazol-4-yl)-1,5-naphthyridine]: the “Estimate pIC50 value” is recorded as 6.80 ± 0.40 on CDK8; 6.18 ± 0.14 on TNIK; 6.82 ± 0.05 at RIPK2; 6.97 ± 0.12 at TGFBR2; 7.18 ± 0.50 at CDK19. Moreover, the “inhibitory activity” value in the data set on CDK8 and CDK19 (CDK8/19) is “unique to ALK5iII”. Moreover, the “estimate pIC50 value against 11 kinases” value in [6] is on record as “more than 6”. In addition, in data set [5], the Ames test determination result was “positive”. Also, the “typical endocrine cells” value in data set [4] (scRNA-seq) is recorded as “found with almost no exception”.
